# Source: US20240366521A1, “NANOPARTICLES AND METHODS OF USE” (Qana Therapeutics Inc., priority 2023, published 2024)
# Assay: Solvent screen of MMAE
# Format: physicochemical
# Details: acetone, ethanol, and isopropanol
# Method: A solvent screen of MMAE was conducted.
compound,measurement,value
"CCC(C)C(C(CC(=O)N1CCCC1C(OC)C(C)C(=O)NC(C)C(O)c1ccccc1)OC)N(C)C(=O)C(NC(=O)C(NC)C(C)C)C(C)C (stereo not shown) [MMAE, monomethyl auristatin E]",solubility of MMAE in solvent,good solubility
